Assay [1] deals with T1, human recombinant Monoacylglycerol Lipase (Homo sapiens, UniProt Q99685).
T1 sequence (Q99685 1-303): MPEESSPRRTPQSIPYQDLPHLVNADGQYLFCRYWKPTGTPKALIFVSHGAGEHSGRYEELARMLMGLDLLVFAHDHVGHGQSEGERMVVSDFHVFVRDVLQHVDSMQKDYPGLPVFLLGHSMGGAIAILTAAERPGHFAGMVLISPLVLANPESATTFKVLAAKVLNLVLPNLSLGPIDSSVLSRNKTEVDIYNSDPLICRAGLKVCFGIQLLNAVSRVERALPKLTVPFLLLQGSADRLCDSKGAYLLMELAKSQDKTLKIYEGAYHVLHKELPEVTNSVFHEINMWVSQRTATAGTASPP
Description: MAGL enzymatic assay (IC50; 7-HCA substrate added at T=0 min or T=30 min). In kind it is biochemical.

Assay [2] deals with T1, human recombinant Monoacylglycerol Lipase. Put plainly: MAGL inactivation (kinact/KI from enzyme progress curves, T=0 min protocol). Conditions: from plot of Kobs vs. compound concentration, geometric mean of 2-5 determinations (b: ≥6).
Setting [3] is: MAGL (T = 30 min) IC50, substrate 7-HCA added after 30 minute incubation (T=30 min), geometric mean of 2-5 determinations unless otherwise indicated.
The mark [4] stands for this setting: substrate 7-HCA added immediately (T=0 min), geometric mean of 2-5 determinations unless otherwise indicated, read-out: MAGL (T = 0 min) IC50.
Setting [5] is: read-out: MAGL (T=30 min) IC50, 30 minute incubation of compound with MAGL enzyme before addition of 7-HCA substrate.
Where [6] appears, read: MAGL (T=30 min) IC50, 30 minute incubation of compound with MAGL enzyme before addition of 7-HCA substrate.

Experimental findings from patent US10626125B2, “1,1,1-trifluoro-3-hydroxypropan-2-yl carbamate derivatives as MAGL inhibitors” (PFIZER INC., priority 2017, dated 2020) are described below.

Structures are written as SMILES. Like-named read-outs stand apart in the source and are kept apart here.

The IC50 is the concentration at which inhibition is half-maximal. In the case of `O=C(O[C@H](CO)C(F)(F)F)N1CCC2(CC1)CC(Oc1cccc(C(F)F)c1)C2` [Example 60, (2R)-1,1,1-trifluoro-3-hydroxypropan-2-yl 2-[3-(difluoromethyl)phenoxy]-7-azaspiro[3.5]nonane-7-carboxylate], the IC50 in assay [1] (setting [3]) worked out at 0.3 nM; in assay [1] (setting [4]) it was 2 nM. Besides, the “MAGL kinact/KI” value in assay [2] is given as 267000 1/s per M.

Regarding `O=C(O[C@H](CO)C(F)(F)F)N1CCC2(CCC(n3cc(C(F)F)cn3)CO2)CC1` (single isomer, unassigned) [Example 75], the IC50 in assay [1] (setting [3]) came to 12 nM; in assay [1] (setting [4]) it was 115 nM. In addition, the “MAGL kinact/KI” value in assay [2] is 7370 1/s per M.

Take `O=C(OC(CO)C(F)(F)F)N1CCC2(CCC(n3cc(F)cn3)CO2)CC1` (single isomer, unassigned) [diastereomer of Example 70]: the half-maximal inhibitory concentration (IC50) in assay [1] (setting [5]) is 14 nM.

As for `CN(C(=O)C1CC1)C1CC2(CCN(C(=O)O[C@H](CO)C(F)(F)F)CC2)C1` [Example 55, (2R)-1,1,1-trifluoro-3-hydroxypropan-2-yl 2-[(cyclopropylcarbonyl)(methyl)amino]-7-azaspiro[3.5]nonane-7-carboxylate], the values for the IC50 in assay [1] (setting [3]) and in assay [1] (setting [4]) were 2 nM and 30 nM, respectively. The “MAGL kinact/KI” value in assay [2] is 15700 1/s per M.

For `O=C(OC(CO)C(F)(F)F)N1CCC2(CC1)CC(c1cc(C(F)F)ccn1)CO2` (single isomer, unassigned) [diastereomer of Example 35], the IC50 in assay [1] (setting [5]) is 19 nM.

As for `N#Cc1ccc(C2COC3(CCN(C(=O)O[C@H](CO)C(F)(F)F)CC3)C2)cc1` (single isomer, unassigned) [Example 31], the IC50 in assay [1] (setting [3]) stood at 4 nM; in assay [1] (setting [4]), 33 nM. Besides, the “MAGL kinact/KI” value in assay [2] is listed as 8060 1/s per M.

Regarding `O=C(O[C@H](CO)C(F)(F)F)N1CCC2(CC1)CC(c1ccc(F)cn1)C2` [Example 2, (2R)-1,1,1-Trifluoro-3-hydroxypropan-2-yl 2-(5-fluoropyridin-2-yl)-7-azaspiro[3.5]nonane-7-carboxylate], the IC50 came out at 2 nM in assay [1] (setting [3]) and 21 nM in assay [1] (setting [4]). The “MAGL kinact/KI” value in assay [2] is recorded as 33800 1/s per M.

In the case of `O=C(O[C@H](CO)C(F)(F)F)N1CCC2(CC1)CC(c1c(F)cccc1F)CO2` (single isomer, unassigned) [Example 32], the results for the IC50 in assay [1] (setting [3]) and in assay [1] (setting [4]) were 0.4 nM and 5 nM, respectively. Besides, the “MAGL kinact/KI” value in assay [2] is 233000 1/s per M.

Regarding `O=C(O[C@H](CO)C(F)(F)F)N1CCC2(CC1)CC(c1ccc(C(F)(F)F)cn1)CO2` (single isomer, unassigned) [Example 40], the IC50 amounted to 3 nM in assay [1] (setting [3]) and 9 nM in assay [1] (setting [4]). The “MAGL kinact/KI” value in assay [2] is 21800 1/s per M.

Turning to `O=C(OC(CO)C(F)(F)F)N1CCC2(CC1)CC(c1ccc(C(F)(F)F)cn1)CO2` (single isomer, unassigned) [diastereomer of Example 40], in assay [1] (setting [5]), the IC50 was found to be 9 nM.

Consider `O=C(OC(CO)C(F)(F)F)N1CCC2(CCC(n3cc(C(F)F)cn3)CO2)CC1` (single isomer, unassigned) [diastereomer of Example 75], for which the IC50 in assay [1] (setting [5]) was found to be 3 nM.

As for `O=C(OC(CO)C(F)(F)F)N1CCC2(CCC(c3ccc(F)cn3)CO2)CC1` (single isomer, unassigned) [diastereomer of Example 74], the IC50 in assay [1] (setting [5]) is 15 nM.

Consider `O=C(OC(CO)C(F)(F)F)N1CCC2(CC1)CC(c1ccc(F)cc1F)CO2` (single isomer, unassigned) [diastereomer of Example 33], for which, in assay [1] (setting [5]), the concentration for half-maximal inhibition (IC50) was 2 nM.

For `O=C(O[C@H](CO)C(F)(F)F)N1CCC2(CC1)CC(n1cc(C(F)F)cn1)CO2` (single isomer, unassigned) [diastereomer of Example 20], the IC50 in assay [1] (setting [6]) is 65 nM.

`O=C(O[C@H](CO)C(F)(F)F)N1CCC2(CC1)C[C@H](n1cc(F)cn1)CO2` [Example 10, (2R)-1,1,1-Trifluoro-3-hydroxypropan-2-yl (3S)-3-(4-fluoro-1H-pyrazol-1-yl)-1-oxa-8-azaspiro[4.5]decane-8-carboxylate]: the IC50 is 49 nM in assay [1] (setting [3]) and 563 nM in assay [1] (setting [4]).

For `Cc1cn(C2COC3(CCN(C(=O)OC(CO)C(F)(F)F)CC3)C2)nc1C` (single isomer, unassigned) [diastereomer of Example 54], the IC50 in assay [1] (setting [5]) is 20 nM.

`O=C(O[C@H](CO)C(F)(F)F)N1CCC2(CC1)CC(n1ncc3ccccc31)CO2` (single isomer, unassigned) [diastereomer of Example 62]: the 50% inhibitory concentration (IC50) in assay [1] (setting [5]) stood at 49 nM.

As to `O=C(O[C@H](CO)C(F)(F)F)N1CCC2(CC1)CC(c1c(F)cccc1F)CO2` (single isomer, unassigned) [diastereomer of Example 32], the half-maximal inhibitory concentration (IC50) in assay [1] (setting [6]) came out at 1 nM.

As to `N#Cc1cccc(C2COC3(CCN(C(=O)O[C@H](CO)C(F)(F)F)CC3)C2)c1F` (single isomer, unassigned) [diastereomer of Example 71], the IC50 in assay [1] (setting [6]) turned out to be 8 nM.

For `O=C(OC(CO)C(F)(F)F)N1CCC2(CC1)CC(c1ccccn1)CO2` (single isomer, unassigned) [diastereomer of Example 41], the IC50 in assay [1] (setting [5]) was 20 nM.

In the case of `N#Cc1cc(C2COC3(CCN(C(=O)OC(CO)C(F)(F)F)CC3)C2)ccc1F` (single isomer, unassigned) [diastereomer of Example 28], the concentration for half-maximal inhibition (IC50) in assay [1] (setting [5]) turned out to be 14 nM.

For the molecule `Cc1cnn(C2COC3(CCN(C(=O)O[C@H](CO)C(F)(F)F)CC3)C2)c1` (single isomer, unassigned) [diastereomer of Example 24], the IC50 in assay [1] (setting [5]) was 60 nM.

For `O=C(O[C@H](CO)C(F)(F)F)N1CCC2(CC1)CC(Oc1ccc(C(F)F)nc1)C2` [Example 19, (2R)-1,1,1-Trifluoro-3-hydroxypropan-2-yl 2-{[6-(difluoromethyl)pyridin-3-yl]oxy}-7-azaspiro[3.5]nonane-7-carboxylate], the results for the IC50 in assay [1] (setting [3]) and in assay [1] (setting [4]) were 1 nM and 8 nM, respectively.

For `N#Cc1ccc(C2COC3(CCN(C(=O)O[C@H](CO)C(F)(F)F)CC3)C2)c(F)c1` (single isomer, unassigned) [diastereomer of Example 72], in assay [1] (setting [6]), the IC50 turned out to be 12 nM.

On to `CN(C1CCOC2(CCN(C(=O)O[C@H](CO)C(F)(F)F)CC2)C1)S(=O)(=O)CC1CC1` (single isomer, unassigned) [Example 50], for which the IC50 in assay [1] (setting [3]) was 67 nM; in assay [1] (setting [4]) it was 752 nM.

Regarding `O=C(OC(CO)C(F)(F)F)N1CCC2(CC1)CC(n1ccc(C(F)(F)F)n1)CO2` (single isomer, unassigned) [diastereomer of Example 53], the half-inhibitory concentration (IC50) in assay [1] (setting [5]) was found to be 9 nM.

As to `CC(C)(C)c1cnn(C2COC3(CCN(C(=O)OC(CO)C(F)(F)F)CC3)C2)c1` (single isomer, unassigned) [diastereomer of Example 21], the IC50 in assay [1] (setting [5]) is 7 nM.

On to `O=C(O[C@H](CO)C(F)(F)F)N1CCC2(CC1)CC(c1ccc(C(F)F)cn1)CO2` (single isomer, unassigned) [diastereomer of Example 39], for which, in assay [1] (setting [5]), the IC50 amounted to 31 nM.

Regarding `CC(C)(C)c1ccn(C2COC3(CCN(C(=O)OC(CO)C(F)(F)F)CC3)C2)n1` (single isomer, unassigned) [diastereomer of Example 52], in assay [1] (setting [5]), the concentration for half-maximal inhibition (IC50) was determined as 4 nM.

Consider `O=C(OC(CO)C(F)(F)F)N1CCC2(CC1)CC(n1cc(Cl)cn1)CO2` (single isomer, unassigned) [diastereomer of Example 22], for which, in assay [1] (setting [5]), the 50% inhibitory concentration (IC50) was found to be 23 nM.

Turning to `O=C(O[C@H](CO)C(F)(F)F)N1CCC2(CC1)C[C@@H](n1cc(F)cn1)CO2` [Example 11, (2R)-1,1,1-Trifluoro-3-hydroxypropan-2-yl (3R)-3-(4-fluoro-1H-pyrazol-1-yl)-1-oxa-8-azaspiro[4.5]decane-8-carboxylate], the IC50 in assay [1] (setting [3]) amounted to 15 nM; in assay [1] (setting [4]) it was 211 nM.

As for `N#Cc1ccc(C2COC3(CCN(C(=O)OC(CO)C(F)(F)F)CC3)C2)nc1` (single isomer, unassigned) [diastereomer of Example 38], the concentration for half-maximal inhibition (IC50) in assay [1] (setting [5]) turned out to be 336 nM.

With `O=C(OC(CO)C(F)(F)F)N1CCC2(CC1)CC(c1ccc(F)cc1)CO2` (single isomer, unassigned) [diastereomer of Example 34], the IC50 in assay [1] (setting [5]) is 1 nM.

On to `N#Cc1cccc(C2CCOC3(CCN(C(=O)OC(CO)C(F)(F)F)CC3)C2)c1` (single isomer, unassigned) [diastereomer of Example 73], for which, in assay [1] (setting [5]), the IC50 turned out to be 74 nM.

In the case of `O=C(OC(CO)C(F)(F)F)N1CCC2(CCC(n3cc(C(F)(F)F)cn3)CO2)CC1` (single isomer, unassigned) [diastereomer of Example 69], the half-maximal inhibitory concentration (IC50) in assay [1] (setting [5]) turned out to be 3 nM.

Regarding `N#Cc1ccc(C2COC3(CCN(C(=O)O[C@H](CO)C(F)(F)F)CC3)C2)cc1` (single isomer, unassigned) [diastereomer of Example 31], the IC50 in assay [1] (setting [5]) amounted to 23 nM.

As to `CN(C1CCOC2(CCN(C(=O)OC(CO)C(F)(F)F)CC2)C1)S(=O)(=O)CC1CC1` (single isomer, unassigned) [diastereomer of Example 50], the IC50 in assay [1] (setting [5]) worked out at 284 nM.

As to `N#Cc1ccc([C@@H]2COC3(CCN(C(=O)O[C@H](CO)C(F)(F)F)CC3)C2)cc1F` [diastereomer of Example 27, (2R)-1,1,1-trifluoro-3-hydroxypropan-2-yl (3R)-3-(4-cyano-3-fluorophenyl)-1-oxa-8-azaspiro[4.5]decane-8-carboxylate], in assay [1] (setting [6]), the IC50 came out at 17 nM.
